Measurements reported in US20200163984A1, “USE OF ISOVALERYL SPIRAMYCIN I, II AND/OR III IN MANUFACTURING MEDICAMENT FOR TREATING AND/OR PREVENTING TUMOR, AND MEDICAMENT” (SHENYANG FUYANG PHARMACEUTICAL TECHNOLOGY CO., LTD., priority 2017, published 2020).
Like-named read-outs stand apart in the source and are kept apart here.

How the values were obtained:
[1] = Spleen index of A549 lung cancer tumor-bearing mice; conditions: n = 6
[2] = tested on: transplanted tumor of human non-small cell lung cancer cell H1299
Experimental: (§1) Then cell concentration was adjusted to 1×10^7/ml with matrigel, then each nude mouse was inoculated subcutaneously with 0.2 ml of cells at its right armpit and recorded as the first day of inoculation. When the tumor grows to be greater than or equal to 100 mm^3, the mice were randomly divided into 11 groups with 6 mice in each group: isovaleryl spiramycin I groups with doses of 25, 50 and 100 mg/kg, isovaleryl spiramycin II groups with doses of 25, 50 and 100 mg/kg, and isovaleryl spiramycin III groups with doses of 25, 50 and 100 mg/kg. Each group was continuously administered intragastrically for 30 days with a dose of 20 ml/kg. The mice were sacrificed the next day after drug withdrawal and the indicators were tested. The long diameter and short diameter of the tumor, and the body weight of each mouse were recorded every 3 days from drug administration to nude mouse sacrifice.
(§2) The body weight of the nude mice and the long diameter (a) and short diameter (b) of the transplanted tumor were measured every 3 days, and the tumor volume (v), relative tumor volume (RTV) and relative tumor proliferation rate (T/C) are calculated respectively according to the following formulas, wherein V=a×b^2/2; RTV=V/V0 (V0 is the tumor volume before administration, V is the tumor volume before sacrifice), and T/C (%)=treatment group RTV/model control group RTV×100%.
(§3) Each mouse was weighed and sacrificed. After the tumor was completely stripped off from the body of the mouse, the non-tumor tissues such as blood stains and fat were removed to weigh the tumor and calculate the tumor growth inhibition rate. The average tumor weight of each group of mice is used as an indicator of efficacy. Tumor growth inhibition rate (%)=(1−the average tumor weight of the treatment group/the average tumor weight of the model group)×100%.

[3] = Thymus index and spleen index of Lewis lung cancer tumor-bearing mice; conditions: n = 6
Experimental: In the Lewis lung cancer model, the mice inoculated with the tumor were randomly divided into groups with 10 mice in each group the next day of inoculation. The groups included: a model control group, a positive drug cyclophosphamide control group (CTX, 30 mg/kg), isovaleryl spiramycin I groups with doses of 13, 26 and 52 mg/kg; isovaleryl spiramycin II groups with doses of 13, 26 and 52 mg/kg; isovaleryl spiramycin III groups with doses of 13, 26 and 52 mg/kg. Each group was continuously administered intragastrically for 15 days with a dose of 20 ml/kg.

[4] = tested on: transplanted tumor of human gastric adenocarcinoma cell SGC7901; experiment: SGC7901 transplanted tumor in nude mice
Experimental: as §1, with “group: a model group, a cyclophosphamide group,” for “group:”
as §2, §3

[5] = tested on: transplanted tumor of human pancreatic cancer cell PANC-1; experiment: PANC-1 transplanted tumor in nude mice; conditions: for Tumor Volume (mm3) (d 1): d1
Experimental: as §1, with “group: a model group, a cyclophosphamide group,” for “group:”
as §2, §3

[6] = H1299, 25 mg/kg (low dose) i.g. 30 days
[7] = H1299, 50 mg/kg (medium dose) i.g. 30 days
[8] = H1299, 100 mg/kg (high dose) i.g. 30 days
[9] = SGC7901, 12.5 mg/kg (low dose) i.g. 30 days
[10] = SGC7901, 25 mg/kg (medium dose) i.g. 30 days
[11] = SGC7901, 50 mg/kg (high dose) i.g. 30 days
[12] = PANC-1, 12.5 mg/kg (low dose) i.g. 30 days
[13] = PANC-1, 25 mg/kg (medium dose) i.g. 30 days
[14] = PANC-1, 50 mg/kg (high dose) i.g. 30 days

Compound: CCC(=O)O[C@@H]1CC(=O)O[C@H](C)C/C=C/C=C/[C@H](O[C@H]2CC[C@H](N(C)C)[C@@H](C)O2)[C@H](C)C[C@H](CC=O)[C@H](O[C@@H]2O[C@H](C)[C@@H](O[C@H]3C[C@@](C)(O)[C@@H](OC(=O)CC(C)C)[C@H](C)O3)[C@H](N(C)C)[C@H]2O)[C@H]1OC [Isovaleryl spiramycin III, isovaleryl spiramycin III]
- Spleen Index (%) ([1]; dose 13 mg/kg): 0.32 ± 0.02%
- Spleen Index (%) ([1]; dose 26 mg/kg): 0.33 ± 0.11%
- Spleen Index (%) ([1]; dose 52 mg/kg): 0.35 ± 0.09%
- Inhibition Rate (tumor growth inhibition rate) [2, 6]: 13.11%
- Relative Tumor Proliferation Rate (T/C) [2, 6]: 89.88%
- Relative Tumor Volume (RTV) [2, 6]: 11.52 ± 2.51
- Tumor Volume (d 1) [2, 6]: 137.58 ± 14.95 mm3
- Tumor Volume (d 30) [2, 6]: 1565.97 ± 277.97 mm3
- Tumor Weight [2, 6]: 1.51 ± 0.30 g
- Inhibition Rate (tumor growth inhibition rate) [2, 7]: 49.38%
- Relative Tumor Proliferation Rate (T/C) [2, 7]: 48.11%
- Relative Tumor Volume (RTV) [2, 7]: 6.17 ± 2.64
- Tumor Volume (d 1) [2, 7]: 137.82 ± 17.12 mm3
- Tumor Volume (d 30) [2, 7]: 816.87 ± 299.03 mm3
- Tumor Weight [2, 7]: 0.88 ± 0.20 g
- Inhibition Rate (tumor growth inhibition rate) [2, 8]: 62.78%
- Relative Tumor Proliferation Rate (T/C) [2, 8]: 32.43%
- Relative Tumor Volume (RTV) [2, 8]: 4.16 ± 1.90
- Tumor Volume (d 1) [2, 8]: 137.09 ± 12.95 mm3
- Tumor Volume (d 30) [2, 8]: 557.82 ± 209.73 mm3
- Tumor Weight [2, 8]: 0.65 ± 0.17 g
- tumor volume and relative tumor volume compared with the model group ([2]; H1299, low, medium and high doses, P<0.05): significantly lower
- mouse weight compared with the model group ([2]; mouse, in vivo): no significant changes
- Spleen Index (%) ([3]; dose 13 mg/kg): 0.62 ± 0.25%
- Thymus Index (%) ([3]; dose 13 mg/kg): 0.12 ± 0.10%
- Spleen Index (%) ([3]; dose 26 mg/kg): 0.68 ± 0.11%
- Thymus Index (%) ([3]; dose 26 mg/kg): 0.11 ± 0.07%
- Spleen Index (%) ([3]; dose 52 mg/kg): 0.74 ± 0.23%
- Thymus Index (%) ([3]; dose 52 mg/kg): 0.13 ± 0.06%
- Inhibition Rate (tumor growth inhibition rate) [4, 9]: 21.68%
- Relative Tumor Proliferation Rate (T/C) [4, 9]: 65.48%
- Relative Tumor Volume (RTV) [4, 9]: 5.52 ± 4.03
- Tumor Volume (d 1) [4, 9]: 186.22 ± 80.26 mm3
- Tumor Volume (d 30) [4, 9]: 1326.06 ± 96.10 mm3
- Tumor Weight [4, 9]: 1.23 ± 0.70 g
- Inhibition Rate (tumor growth inhibition rate) [4, 10]: 41.13%
- Relative Tumor Proliferation Rate (T/C) [4, 10]: 49.44%
- Relative Tumor Volume (RTV) [4, 10]: 3.77 ± 6.51
- Tumor Volume (d 1) [4, 10]: 274.12 ± 83.50 mm3
- Tumor Volume (d 30) [4, 10]: 1473.96 ± 798.75 mm3
- Tumor Weight [4, 10]: 0.92 ± 0.40 g
- Inhibition Rate (tumor growth inhibition rate) [4, 11]: 63.34%
- Relative Tumor Proliferation Rate (T/C) [4, 11]: 30.34%
- Relative Tumor Volume (RTV) [4, 11]: 3.66 ± 1.35
- Tumor Volume (d 1) [4, 11]: 295.39 ± 188.69 mm3
- Tumor Volume (d 30) [4, 11]: 974.67 ± 839.14 mm3
- Tumor Weight [4, 11]: 0.58 ± 0.52 g
- tumor volume and relative tumor volume compared with the model group ([4]; SGC7901, low, medium and high doses, P<0.05): significantly lower
- mouse weight compared with the model group ([4]; mouse, in vivo): no significant changes
- Inhibition Rate (tumor growth inhibition rate) [5, 12]: 26.75%
- Tumor Weight [5, 12]: 1.99 ± 0.81 g
- Inhibition Rate (tumor growth inhibition rate) [5, 13]: 39.09%
- Tumor Weight [5, 13]: 1.66 ± 0.66 g
- Inhibition Rate (tumor growth inhibition rate) ([5]; PANC-1, 25 mg/kg (medium dose) i.g. 30 days, listed as isovaleryl spiramycin III): 39.08%
- Inhibition Rate (tumor growth inhibition rate) [5, 14]: 61.78%
- Tumor Weight [5, 14]: 1.03 ± 0.54 g
- Relative Tumor Proliferation Rate (T/C) ([5]; PANC-1, high dose i.g. 30 days): 34.91%
- Relative Tumor Proliferation Rate (T/C) ([5]; PANC-1, low dose i.g. 30 days): 75.03%
- tumor volume and relative tumor volume compared with the model group ([5]; PANC-1, low, medium and high doses, P<0.05): significantly lower
- Relative Tumor Proliferation Rate (T/C) ([5]; PANC-1, medium dose i.g. 30 days): 54.92%
- Relative Tumor Proliferation Rate (T/C) ([5]; PANC-1 nude mice, 12.5 mg/kg): 75.03%
- Relative Tumor Volume (RTV) ([5]; PANC-1 nude mice, 12.5 mg/kg): 13.13 ± 3.15
- Tumor Volume (mm3) (d 1) ([5]; PANC-1 nude mice, 12.5 mg/kg): 137.99 ± 20.99 mm3
- Tumor Volume (mm3) (d30) ([5]; PANC-1 nude mice, 12.5 mg/kg): 1758.49 ± 129.06 mm3
- Relative Tumor Proliferation Rate (T/C) ([5]; PANC-1 nude mice, 25 mg/kg): 54.92%
- Relative Tumor Volume (RTV) ([5]; PANC-1 nude mice, 25 mg/kg): 9.61 ± 1.66
- Tumor Volume (mm3) (d 1) ([5]; PANC-1 nude mice, 25 mg/kg): 109.95 ± 13.42 mm3
- Tumor Volume (mm3) (d30) ([5]; PANC-1 nude mice, 25 mg/kg): 1043.33 ± 113.01 mm3
- Relative Tumor Proliferation Rate (T/C) ([5]; PANC-1 nude mice, 50 mg/kg): 34.90%
- Relative Tumor Volume (RTV) ([5]; PANC-1 nude mice, 50 mg/kg): 5.17 ± 0.64
- Tumor Volume (mm3) (d 1) ([5]; PANC-1 nude mice, 50 mg/kg): 113.14 ± 9.02 mm3
- Tumor Volume (mm3) (d30) ([5]; PANC-1 nude mice, 50 mg/kg): 684.21 ± 115.00 mm3
- mouse weight compared with the model group ([5]; mouse, in vivo): no significant changes
